According to article PMC11557314 (Frontiers in Pharmacology, 2024):
Where no end group is shown, it is not given here.

Tested on: p38 phosphorylation in hKOPr-CHO cells
Experiment: Western blot of phospho-p38 in hKOPr-CHO cells
Format: cell-based, human
Conditions: 1 µM, 10 min, ratio phosphorylated to non-phosphorylated protein
Method: hKOPr-CHO cells were seeded in 10-cm dishes and cultured until they reached 70%–80% confluency. Overnight serum starvation was initiated by replacing the culture medium with FBS-free medium [DMEM supplemented with 100 μg/mL GlutaMAX, 100 μg/mL penicillin/streptomycin, and 400 μg/mL geneticin (G418)]. […] The FBS-free medium was used as the control. After the treatment, cells were rinsed and harvested in cold PBS by scraping the dishes using a rubber policeman. Cell suspensions were centrifuged at 4°C for 7 min at 21,000 g, and the supernatants were removed. Pellets were then resuspended and washed in ice-cold PBS. […] Total proteins of the supernatant cell lysate were quantified by the biuret assay (Carl Roth GmbH, Karlsruhe, Germany). Antibody linearity ranges were determined for target proteins and the internal loading control, and the combined linear range was then used to determine how much sample should be loaded in order to produce a linear signal response. […] Immunoreactive bands were detected by incubating the membranes in a horseradish peroxidase-conjugated secondary antibody (1:5,000, Invitrogen), followed by incubation with enhanced chemiluminescence reagent (Merck Immobilon). […] To avoid errors introduced by stripping the membranes, total and phosphorylated proteins were analyzed from parallel gels. […]

Sequence	p38 phosphorylation compared to DynB_WT
YGGFSRRQFKVVT [DynB_L5S]	significantly less phosphorylated
YGAFLRRAFKVVT [DynB_G3A/Q8A]	significantly less phosphorylated
